Experimental data published in publication PMC7658068, “Effects of a novel variant of the yeast γ-glutamyl kinase Pro1 on its enzymatic activity and sake brewing” (Journal of Industrial Microbiology & Biotechnology, 2020).

Key:
[1] = molecular target: T1, γ-glutamyl kinase Pro1 (GK) (Saccharomyces cerevisiae, UniProt P32264); experiment: PK/LDH-coupled ADP assay, NADH at […] nm; type: biochemical; set-up: full-length ORF in pET15b (NdeI/XhoI), His-tag, E. coli BL21(DE3), Ni Sepharose; tag removal not mentioned; conditions: 400 mM sodium glutamate, 5 mM ATP, 10 mM MgCl2, 100 mM HEPES-NaOH pH 7.4, 30 °C; no proline
T1 sequence (P32264 1-428): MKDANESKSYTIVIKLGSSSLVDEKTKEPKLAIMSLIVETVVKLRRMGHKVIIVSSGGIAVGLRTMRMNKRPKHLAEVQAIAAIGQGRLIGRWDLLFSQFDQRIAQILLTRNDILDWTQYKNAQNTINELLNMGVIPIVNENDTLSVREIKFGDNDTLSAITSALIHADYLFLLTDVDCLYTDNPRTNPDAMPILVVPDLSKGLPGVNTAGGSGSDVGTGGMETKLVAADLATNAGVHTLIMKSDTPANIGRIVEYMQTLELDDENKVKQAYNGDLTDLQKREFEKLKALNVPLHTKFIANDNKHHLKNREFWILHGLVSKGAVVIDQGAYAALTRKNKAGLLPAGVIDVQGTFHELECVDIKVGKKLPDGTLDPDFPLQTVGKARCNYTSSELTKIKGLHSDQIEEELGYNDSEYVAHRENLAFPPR

[2] = molecular target: T1, γ-glutamyl kinase Pro1 (GK); conditions: 400 mM sodium glutamate, 5 mM ATP, 10 mM MgCl2, 100 mM HEPES-NaOH pH 7.4, 30 °C; allosteric feedback inhibition
[3] = molecular target: γ-glutamyl kinase Pro1 (GK) (Saccharomyces cerevisiae, UniProt P32264, I150T); experiment: biochemical; conditions: read-out: relative activity at 100 mM proline
[4] = molecular target: γ-glutamyl kinase Pro1 (GK) (Saccharomyces cerevisiae, UniProt P32264, Q79H); experiment: biochemical; conditions: read-out: relative activity at 100 mM proline
γ-glutamyl kinase Pro1 (GK) (Saccharomyces cerevisiae, UniProt P32264, Q79H), sequence (P32264 whole entry Q79H): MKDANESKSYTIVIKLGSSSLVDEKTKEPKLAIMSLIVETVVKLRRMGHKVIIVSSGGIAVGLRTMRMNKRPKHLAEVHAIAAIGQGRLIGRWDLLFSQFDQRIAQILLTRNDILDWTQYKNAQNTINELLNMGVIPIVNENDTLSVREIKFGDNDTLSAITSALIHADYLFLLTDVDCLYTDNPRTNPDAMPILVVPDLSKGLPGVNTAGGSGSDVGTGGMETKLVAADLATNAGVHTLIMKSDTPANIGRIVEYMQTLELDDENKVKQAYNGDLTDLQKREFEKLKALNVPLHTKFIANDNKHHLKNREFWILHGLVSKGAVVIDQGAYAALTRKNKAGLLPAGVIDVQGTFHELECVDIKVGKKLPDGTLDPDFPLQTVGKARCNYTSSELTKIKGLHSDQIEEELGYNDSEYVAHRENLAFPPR

γ-glutamyl kinase Pro1 (GK) (Saccharomyces cerevisiae, UniProt P32264, I150T), sequence (P32264 whole entry I150T): as the sequence (P32264 whole entry Q79H) above, with H79Q, I150T counted along it

| activity at 100000 µM [3] | activity at 100000 µM [4] | Compound | PK/LDH-coupled ADP assay, NADH at 340 nm [1] | relative activity with 0-5 mM proline [2] |
| --- | --- | --- | --- | --- |
| – | – | Nc1ncnc2c1ncn2[C@@H]1O[C@H](COP(=O)(O)OP(=O)(O)OP(=O)(O)O)[C@@H](O)[C@H]1O [ATP] | GK activity was measured by the production of ADP in an enzyme-coupled system | – |
| – | – | N[C@@H](CCC(=O)O)C(=O)O [glutamate] | the reaction was initiated by the addition of sodium glutamate | – |
| 59% | 96% | O=C(O)[C@@H]1CCCN1 [proline] | – | in the presence of proline, the GK activity of WT was markedly inhibited |
